How the values were obtained:
human 5-HT1A receptor = target: T1, human 5-HT1A receptor (Homo sapiens, UniProt P08908); experiment: Radioligand binding, [3H]-8-OH-DPAT displacement, HEK-293 cells; details: mean ± SEM, three independent binding experiments; read-out: Ki [nM] 5-HT1AR
T1 construct: expressed in transfected cells
T1 sequence (P08908 1-422): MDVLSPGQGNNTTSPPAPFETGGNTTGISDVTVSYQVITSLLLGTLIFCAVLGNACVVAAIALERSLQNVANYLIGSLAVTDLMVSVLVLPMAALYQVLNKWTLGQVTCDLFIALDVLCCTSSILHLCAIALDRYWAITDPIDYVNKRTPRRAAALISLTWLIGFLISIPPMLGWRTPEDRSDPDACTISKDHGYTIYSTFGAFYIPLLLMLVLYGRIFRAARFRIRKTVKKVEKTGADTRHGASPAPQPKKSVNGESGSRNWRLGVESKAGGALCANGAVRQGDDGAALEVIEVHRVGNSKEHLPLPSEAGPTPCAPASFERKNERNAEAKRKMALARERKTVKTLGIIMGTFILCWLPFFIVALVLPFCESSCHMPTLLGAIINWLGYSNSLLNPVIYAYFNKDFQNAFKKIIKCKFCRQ
Method: (§1) All experiments were performed in HEK-293 cells, which stably express the human 5-HT1A, 5-HT6, 5-HT7b, and D2L receptors, or using CHO-K1 cells expressing human serotonin 5-HT2A receptor, following the previously reported procedures. For displacement studies, the following radioligands (PerkinElmer, USA) at given concentrations were used at: 2.5 nM [^3H]-8-OH-DPAT (135.2 Ci/ mmol); 1 nM [^3H]-ketanserin (53.4 Ci/mmol); 2 nM [^3H]-LSD (83.6 Ci/mmol); 0.8 nM [^3H]-5-CT (39.2 Ci/mmol) or 2.5 nM [^3H]-raclopride (76.0 Ci/mmol) for 5-HT1A, 5-HT2A, 5-HT6, 5-HT7b and D2L receptors, respectively. All tested compounds were evaluated in triplicate at 7 concentrations (10^−10–10^−4 M). The inhibition constants (Ki) were calculated from the Cheng–Prusoff equation [25]. A detailed description is reported in the Supporting Information.
(§2) 1. Procedure for radioligand binding assay
(§3) All experiments were carried out according to the previously published procedures. HEK293 cells stably expressing human 5-HT1A, 5-HT6, 5-HT7b and D2L receptors (prepared with the use of Lipofectamine 2000) or CHO-K1 cells with plasmid containing the sequence coding for the human serotonin 5-HT2A receptor (Perkin Elmer) were maintained at 37 °C in a humidified atmosphere containing 5% CO2 and grown in Dulbecco’s Modified Eagle’s Medium containing 10% dialyzed fetal bovine serum and 500 μg/ml G418 sulfate. For membrane preparation, cells were cultured in 150 cm2 flasks, grown to 90% confluence, washed twice with pre-warmed to 37 °C phosphate buffered saline (PBS) and centrifuged (200 × g) in PBS containing 0.1 mM EDTA and 1 mM dithiothreitol. Prior to membrane preparation, pellets were stored at –80 °C. […]
(§4) The process of equilibration was terminated by rapid filtration through Unifilter plates with a 96-well cell harvester and radioactivity retained on the filters was quantified on a Microbeta plate reader (PerkinElmer, USA). […] The inhibition constants (Ki) were calculated from the Cheng-Prusoff equation [4].

human 5-HT7b receptor = target: T2, human 5-HT7b receptor (Homo sapiens, UniProt P34969); experiment: Radioligand binding, [3H]-5-CT displacement, HEK-293 cells; details: mean ± SEM, three independent binding experiments; read-out: Ki [nM] 5-HT7R
T2 construct: expressed in transfected cells
T2 sequence (P34969 1-432 limits assumed): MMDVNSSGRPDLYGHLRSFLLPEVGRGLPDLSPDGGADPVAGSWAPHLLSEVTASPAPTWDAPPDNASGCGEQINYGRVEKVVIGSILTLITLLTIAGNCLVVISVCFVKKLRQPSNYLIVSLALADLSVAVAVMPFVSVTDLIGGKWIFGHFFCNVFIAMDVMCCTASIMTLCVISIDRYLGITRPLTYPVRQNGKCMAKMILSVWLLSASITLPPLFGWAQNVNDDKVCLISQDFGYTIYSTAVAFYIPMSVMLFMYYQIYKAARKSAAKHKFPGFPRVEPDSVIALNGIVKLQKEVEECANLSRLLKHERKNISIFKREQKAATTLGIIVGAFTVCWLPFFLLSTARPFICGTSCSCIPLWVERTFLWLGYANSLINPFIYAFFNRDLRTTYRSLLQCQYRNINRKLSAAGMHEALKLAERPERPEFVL
Method: as §1, §2, §3, §4

[1] = Metabolic stability in rat liver microsomes (RLM); assay type: in vitro ADME; details: for microsomal CLint at 20 µM / half-life at 20 µM: male, rat, rat liver microsomes, pH 7.4, protein concentration 0.5 mg/mL; for half-life at 20 µM: read-out: Metabolic Stability t1/2; for Metabolic Stability Major Metabolite: protein concentration 0.5 mg/mL
Method: Metabolic stability studies were performed according to reported protocols. […] All samples were analyzed in duplicate.

C8-D1A astrocytes = experiment: Glioprotection against rotenone-induced cytotoxicity, MTT; assay type: cell-based, mouse; details: compound 0.25 µM, rotenone 0.5 µM, 24 h
Method: Mouse astrocytes (C8-D1A cell line, ATCC) were cultured in DMEM (Dulbecco’s Modified Eagle’s Medium) supplemented with 10% FBS (FBS; Gibco, Life Technologies, Carlsbad, CA, USA) and 1% antibiotic mixture (Gibco, Life Technologies, Carlsbad, CA, USA) at standard condition until the cells reached 80–90% confluence. Cells were harvested and seeded in 96-well plates at a density of 5000 cells/well. All experiments were conducted with a reduced amount of serum equal to 2.5%. The optimal amount of serum was determined experimentally on the basis of preliminary studies. […] Then 6-OHDA (20 µM) or rotenone (0.5 µM) were added and co-incubated for the next 24 h. The ability of tested compounds to prevent 6-OHDA-induced or rotenone-induced cytotoxicity was assessed by MTT assay following the protocol described above. The experiments were run three times in triplicates.
Considering the pivotal physiological role of astrocytes in contrasting oxidative stress and promoting tissue repair, supporting their neuroprotective function might be regarded as a tangible strategy to improve the current therapeutic needs in the treatment of neurodegenerative disorders. […] For this purpose, cells were co-incubated with the evaluated compounds (at the non-toxic concentration of 0.25 µM) and 6-OHDA or ROT (20 and 0.5 µM, respectively). After 24 h of incubation, the viability of astrocytes was determined using the MTT assay.

SMILES | Ki (human 5-HT1A receptor) | Ki (human 5-HT7b receptor) | microsomal CLint at 20 µM [1] | half-life at 20 µM [1] | Metabolic Stability Major Metabolite [1] | effect on ROT-induced cytotoxicity (C8-D1A astrocytes)
O=S(=O)(c1cccc(N2CCNCC2)c1)N1Cc2ccccc2C1 [3e, 2-{[3-(Piperazin-1-yl)phenyl]sulfonyl}isoindoline] | 951 ± 120 nM | 4530 ± 327 nM | 3.78 µL/min/mg | 367 min | not detected | –
O=S(=O)(c1cccc(N2CCNCC2)c1)N1Cc2cccc(Cl)c2C1 [3f, 4-Chloro-2-{[3-(piperazin-1-yl)phenyl]sulfonyl}isoindoline] | 385 ± 71 nM | 10700 ± 1030 nM | 18 µL/min/mg | 77 min | hydroxylated | –
O=S(=O)(c1cccc(N2CCNCC2)c1)N1Cc2cccc(Br)c2C1 [3g, 4-Bromo-2-{[3-(piperazin-1-yl)phenyl]sulfonyl}isoindoline] | 680 ± 33 nM | 8800 ± 854 nM | 14.7 µL/min/mg | 94.4 min | hydroxylated | decreased the cytotoxicity

From PMC9855333, “1-(Arylsulfonyl-isoindol-2-yl)piperazines as 5-HT6R Antagonists: Mechanochemical Synthesis, In Vitro Pharmacological Properties and Glioprotective Activity” (Biomolecules, 2022)
